# Source: PMC12777568 (Antimicrobial Agents and Chemotherapy, 2025)
# What was measured:
# [1] = test system: HIV-1 integrase-DNA complexes; settings: cited from earlier work
# [2] = BIC plasma pharmacokinetics, Phase 1 open-label single-dose DDI study GS-US-380-3909 (B/F/TAF 50/200/25 mg with antacid or mineral supplements); format: in vivo, human; settings: for Cmax, reference GLSM: BIC alone (N = 14); for half-life / Vd/F / AUC(0-inf): both sexes, human, plasma, oral; for half-life: BIC T1/2, median (Q1, Q3); for Vd/F: BIC VZ/F; for Vd/F / AUC(0-inf): mean (%CV); for AUC(0-inf): BIC plasma AUCinf
# Procedure: Eligible participants were adult (18–45 years) males and non-pregnant, non-lactating females in good general health at a screening evaluation performed no more than 28 days before the first study dose. […] Full eligibility criteria are available in the supplement. All prescription and over-the-counter medications except vitamins, acetaminophen, ibuprofen, and hormonal contraceptives were not permitted during study participation. Three dosing cohorts were evaluated (Table 1). […] Vitamins and/or other supplements were not permitted on the dosing day. […] Participants received maximum-strength antacid oral suspension (four teaspoons; 20 mL; 1,600 mg aluminum hydroxide/1,600 mg magnesium hydroxide/160 mg simethicone; referred to as “aluminum/magnesium-containing antacid”) on Day 9, calcium carbonate (1,200 mg; 2 × 600 mg tablets) on Day 17, and ferrous fumarate (1 × 324 mg tablet) on Day 25. […] All samples were analyzed within the timeframe determined using frozen stability storage data. […] PK parameters were estimated using Phoenix WinNonlin software (Version 6.4, Pharsight Corporation, Princeton, NJ, USA) using standard noncompartmental analysis methods. […] The estimated 90% CIs were compared to a prespecified lack of DDI boundary of 70%–143%. […] A minimum of 12 evaluable participants in each cohort was calculated to be needed to reject the null hypothesis (i.e., the 90% CI for the GLSM ratio for each PK parameter was outside the prespecified boundary) with ≥90% power.
# [3] = Cohort 1 fasted, B/F/TAF + calcium carbonate simultaneous, N = 14
# [4] = Cohort 1 fasted, B/F/TAF alone, N = 14
# [5] = Cohort 1 fasted, simultaneous aluminum/magnesium-containing antacid
# [6] = Cohort 1 fasted, simultaneous calcium carbonate
# [7] = Cohort 1 fasted, simultaneous ferrous fumarate
# [8] = Cohort 2 fasted, B/F/TAF 2 hours after aluminum/magnesium-containing antacid
# [9] = Cohort 2 fasted, B/F/TAF 2 hours after aluminum/magnesium-containing antacid, N = 13
# [10] = Cohort 2 fasted, B/F/TAF 2 hours before aluminum/magnesium-containing antacid, N = 13
# [11] = Cohort 2 fasted, B/F/TAF alone, N = 14
# [12] = Cohort 3, B/F/TAF alone (fasted), N = 14
# [13] = Cohort 3 fed, B/F/TAF + aluminum/magnesium-containing antacid simultaneous, N = 14
# [14] = Cohort 3 fed, simultaneous aluminum/magnesium-containing antacid
# [15] = Cohort 1 fasted, B/F/TAF + aluminum/magnesium-containing antacid simultaneous, N = 14
# [16] = Cohort 1 fasted, B/F/TAF + ferrous fumarate simultaneous, N = 14
# [17] = Cohort 3 fed, B/F/TAF + ferrous fumarate simultaneous, N = 14
smiles,measurement,setting,value
"O=C(NCc1c(F)cc(F)cc1F)c1cn2c(c(O)c1=O)C(=O)N1[C@H]3CC[C@H](C3)O[C@@H]1C2 [BIC, bictegravir]",dissociation half-life,[1],~ 163 hours
same,"BIC T1/2, median (Q1, Q3)",[2]; [3],"21.0 (17.6, 25.0) h"
same,"BIC plasma Tmax, median (Q1, Q3)",[2]; [3],"1.8 (1.5, 4.0) h"
same,"BIC plasma AUCinf, mean (%CV)",[2]; [4],121.9 (24.4) µg*h/mL
same,"Cmax, reference GLSM",[2]; Cohort 1 fasted,5540 ng/mL
same,Delay of median Tmax compared with B/F/TAF alone,[2]; [5],1 h
same,Increase in mean BIC CL/F compared with B/F/TAF alone,[2]; [5],404%
same,Increase in mean BIC Vz/F compared with B/F/TAF alone,[2]; [5],421%
same,Reduction in BIC AUCinf compared with B/F/TAF alone,[2]; [5],79%
same,Reduction in BIC C24 compared with B/F/TAF alone,[2]; [5],78%
same,Reduction in BIC Cmax compared with B/F/TAF alone,[2]; [5],80%
same,Increase in mean BIC CL/F compared with B/F/TAF alone,[2]; [6],56%
same,Increase in mean BIC Vz/F compared with B/F/TAF alone,[2]; [6],84%
same,Reduction in BIC AUCinf compared with B/F/TAF alone,[2]; [6],33%
same,Reduction in BIC C24 compared with B/F/TAF alone,[2]; [6],35%
same,Reduction in BIC Cmax compared with B/F/TAF alone,[2]; [6],42%
same,Delay of median Tmax compared with B/F/TAF alone,[2]; [7],1.5 h
same,Increase in mean BIC CL/F compared with B/F/TAF alone,[2]; [7],174%
same,Increase in mean BIC Vz/F compared with B/F/TAF alone,[2]; [7],216%
same,Reduction in BIC AUCinf compared with B/F/TAF alone,[2]; [7],63%
same,Reduction in BIC C24 compared with B/F/TAF alone,[2]; [7],63%
same,Reduction in BIC Cmax compared with B/F/TAF alone,[2]; [7],71%
same,"Cmax, test GLSM","[2]; Cohort 2 fasted, B/F/TAF 2 h before aluminum/magnesium-containing antacid, N = 14",5460 ng/mL
same,Decrease in BIC AUCinf compared with B/F/TAF alone,[2]; [8],52%
same,Decrease in BIC C24 compared with B/F/TAF alone,[2]; [8],53%
same,Decrease in BIC Cmax compared with B/F/TAF alone,[2]; [8],59%
same,Delay of median Tmax compared with B/F/TAF alone,[2]; [8],1 h
same,Increase in mean BIC CL/F compared with B/F/TAF alone,[2]; [8],124%
same,Increase in mean BIC VZ/F compared with B/F/TAF alone,[2]; [8],180%
same,"BIC plasma Tmax, median (Q1, Q3)",[2]; [9],"2.0 (1.5, 3.0) h"
same,Delay of median Tmax compared with B/F/TAF alone,"[2]; Cohort 2 fasted, B/F/TAF 2 hours before aluminum/magnesium-containing antacid",1.5 h
same,"BIC plasma Tmax, median (Q1, Q3)",[2]; [10],"1.5 (1.5, 2.0) h"
same,"BIC T1/2, median (Q1, Q3)",[2]; [11],"20.8 (16.5, 22.8) h"
same,"BIC plasma Tmax, median (Q1, Q3)",[2]; [11],"3.0 (2.0, 3.0) h"
same,"BIC T1/2, median (Q1, Q3)",[2]; [12],"18.0 (17.5, 19.9) h"
same,"BIC plasma Tmax, median (Q1, Q3)",[2]; [12],"1.5 (1.5, 2.0) h"
same,"Cmax, reference GLSM","[2]; Cohort 3, fasted",4540 ng/mL
same,"BIC T1/2, median (Q1, Q3)",[2]; [13],"17.9 (16.9, 20.2) h"
same,Decrease in BIC AUCinf compared with B/F/TAF alone under fasted conditions,[2]; [14],47%
same,Decrease in BIC C24 compared with B/F/TAF alone under fasted conditions,[2]; [14],44%
same,Decrease in BIC Cmax compared with B/F/TAF alone under fasted conditions,[2]; [14],49%
same,Delay of median Tmax compared with B/F/TAF alone under fasted conditions,[2]; [14],2 h
same,Increase in mean BIC CL/F compared with B/F/TAF alone under fasted conditions,[2]; [14],89%
same,Increase in mean BIC Vz/F compared with B/F/TAF alone under fasted conditions,[2]; [14],89%
same,Delay of median Tmax compared with B/F/TAF alone under fasted conditions,"[2]; Cohort 3 fed, simultaneous calcium carbonate",2 h
same,Delay of median Tmax compared with B/F/TAF alone under fasted conditions,"[2]; Cohort 3 fed, simultaneous ferrous fumarate",2.5 h
same,half-life,[2]; [15],20.2 h
same,half-life,[2]; [16],21.9 h
same,half-life,[2]; [4],18.9 h
same,half-life,[2]; [9],24.2 h
same,half-life,[2]; [10],21.8 h
same,half-life,"[2]; Cohort 3 fed, B/F/TAF + calcium carbonate simultaneous, N = 14",18.9 h
same,half-life,[2]; [17],19.3 h
same,Vd/F,[2]; [15],61.4 L
same,Vd/F,[2]; [3],21.7 L
same,Vd/F,[2]; [16],37.3 L
same,Vd/F,[2]; [4],11.8 L
same,Vd/F,[2]; [9],31.2 L
same,Vd/F,[2]; [10],14.4 L
same,Vd/F,[2]; [11],11.2 L
same,Vd/F,[2]; [13],29.1 L
same,Vd/F,[2]; [17],19.3 L
same,AUC(0-inf),[2]; [15],28000 ng·h/mL
same,AUC(0-inf),[2]; [3],85000 ng·h/mL
same,AUC(0-inf),[2]; [16],46100 ng·h/mL
same,AUC(0-inf),[2]; [9],67700 ng·h/mL
same,AUC(0-inf),[2]; [10],116000 ng·h/mL
